The text below walks through data of patent US20110130374A1, “Small Pyrimidine Derivatives and Methods of Use Thereof” (BIOSEARCH(2007) LTD., priority 2009, published 2011).

One data set relates to A375 melanoma cells. Put plainly: Transwell cell migration assay, A375 melanoma cells. Particulars: Homo sapiens, A-375; A375 melanoma cells, Transwell 5 μm pore, 24 h, Example 3 (FIGS. 1A, 1E); read-out: IC50 in the migration assay. Format: cell-based. The procedure:
A375 melanoma cells (CRL-1619, American Type Culture Collection (“ATCC”), Manassas Va., USA)) grown in RPMI medium supplement with 10% FBS were starved for 24 hours in FBS free medium. After starvation of 24 hr, 5×10^4 cells in FBS free medium were placed in the upper chamber of 24-well, Transwell apparatus (CORNING TRANS WELL® polycarbonate membrane inserts, 5 μm pore size) with solvent (DMSO/PEG400) or different concentrations of Compound 1 (PRT7000467), Compound 2 (PRT7041128), or Compound 3 (PRT7081582). Medium containing FBS and compounds was added to the bottom chamber. Twenty-four hours later the melanoma cells from the upper chamber were removed with a cotton swab. Cells that migrated to the lower side of the membrane were stained with Calcein-AM (Sigma) and images were taken with fluorescence microscope. The number of migrating cells was quantified by ImageJ software and the IC50 values were calculated using Prism software (Graphpad) (FIG. 1A,1E).
A375 (melanoma) (CRL-1619, ATCC, Manassas, Va., USA), A431 (melanoma) (CRL-2592, ATCC, Manassas, Va., USA), A2058 (melanoma) (CRL-11147, ATCC, Manassas, Va., USA), MDA-MB-231 (breast) (HTB-26, ATCC, Manassas, Va., USA), LS175T (colon) (ATCC, Manassas, Va., USA), HT29 (colon) (HTB-38, ATCC, Manassas, Va., USA), PC3 (prostate) (CRL-1435, ATCC, Manassas, Va., USA), Panc03.27 (pancreatic) (ATCC, Manassas, Va., USA), 4T1 (breast-mouse) (CRL-2539, ATCC, Manassas. Va., USA), D122 (lung-mouse) (the Weizmann Institute of Science), D122-luc (lung-mouse) (the Weizmann Institute of Science), and B16 F10.9 (melanoma-mouse) cells (Caliper Life Sciences, Hopkinton Mass.), were grown in RPMI medium supplemented with 10% FBS. HUVEC cells were grown in Endothelial Cell Growth Medium 2 and THP1 cells were grown in RPMI medium supplemented with 10% FBS, 2 mM L-Glutamine, 1.5 g/L sodium bicarbonate, 10 mM Hepes, 1 mM sodium pyruvate, 4.5 g/L glucose and 0.05 mM 2-mercaptoethanol. The cells were starved for 24 hours in medium without FBS. At the end of the starvation, 5×10^4 cells in medium without FBS were placed in the upper chamber of 24-well, Transwell apparatus (CORNING TRANSWELL® polycarbonate membrane inserts, 5 μm pore size for […] and THP1 cells and 8 μm pore size for all the other cells) with solvent (DMSO/PEG400) or different concentrations of compound 1 (PRT7000467). Medium with FBS and compounds was added to the bottom chamber. Twenty-four hours later the cells from the upper chamber were removed with a cotton swab. Cells that migrated to the lower side of the membrane were stained with Calcein-AM (Sigma) and images were taken with a fluorescence microscope. The number of migrating cells was quantified by ImageJ software and the IC50 values were calculated using Prism software (Graphpad).

For another data set, the system named is A375 cells. Put plainly: Cell viability, WST-1 reagent, A375 cells grown in two-dimension. The data set is classed as cell-based. Particulars: WST-1, 72 h post treatment. On the procedure:
Compound 1 (PRT7000467), Compound 2 (PRT7041128), and Compound 3 (PRT7081582) are not toxic to cells grown in two-dimension. A375 cells were cultured with RPMI and 10% FBS. The cells were treated with different concentrations of Compound 1 (PRT7000467) and Compound 2 (PRT7041128), then the viability of the cells was determined seventy-two hours post treatment using WST-1 reagent (Roche) (FIG. 1B)

On to `O=C(Nc1ccc(S(=O)(=O)Nc2ncccn2)cc1)/C(=C\c1cccs1)NC(=O)c1cccs1` [Compound 2], for which the IC50 with A375 melanoma cells worked out at 9.2 µM. Further, the “toxicity to cells grown in two-dimension” value with A375 cells was “not toxic”.
